Test results from patent publication US12398154B2, “Azaquinazoline pan-KRas inhibitors” (Mirati Therapeutics, Inc., priority 2020, dated 2025).

Tests used:
KRas G12R = KRas G12R (Homo sapiens, UniProt P01116, G12R); assay: biochemical;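 also: TR-FRET displacement assay of compound binding to KRas, read after one hour at room temperature, potency from a four-parameter fit of percent-of-control values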
Description: (§1) The ability of a compound to bind to KRas was measured using a TR-FRET displacement assay. […] After a 60-minute incubation at room temperature, the reaction was measured using a BMG LABTECH CLARIO star Plus via TR-FRET. […] The POC values were fit to a 4-parameter IC50 equation and the IC50 value reported.

KRas G12C = KRas G12C (Homo sapiens, UniProt P01116, G12C); assay: biochemical;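 also: binding to KRas assessed by TR-FRET displacement after one hour incubation at room temperature, potency fitted from percent-of-control values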
Sequence of KRas G12C (P01116 1-169 isoform P01116-2 G12C): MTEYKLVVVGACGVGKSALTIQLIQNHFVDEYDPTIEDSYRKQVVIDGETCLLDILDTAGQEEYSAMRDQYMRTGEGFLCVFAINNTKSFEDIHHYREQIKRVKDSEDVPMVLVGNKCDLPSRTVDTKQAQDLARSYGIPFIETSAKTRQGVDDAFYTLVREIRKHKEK
Description: as §1

KRas Q61H = target: T1, KRas Q61H (Homo sapiens, UniProt P01116, Q61H); assay: KRas binding assay (TR-FRET displacement);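 also: TR-FRET signal read after one hour at room temperature, IC50 derived by four-parameter fitting of percent-of-control values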
T1 construct: Biotinylated KRas (corresponding to amino acids 1-169, produced at Accelegan Inc.); biotin (biotinylated); purchased Accelegan Inc
T1 sequence (P01116 1-169 isoform P01116-2 Q61H): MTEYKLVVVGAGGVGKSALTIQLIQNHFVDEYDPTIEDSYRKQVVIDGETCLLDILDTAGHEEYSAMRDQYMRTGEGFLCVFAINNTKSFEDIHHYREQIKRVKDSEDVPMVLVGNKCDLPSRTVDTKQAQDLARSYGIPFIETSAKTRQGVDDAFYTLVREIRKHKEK
Description: as §1

KRas G12A = KRas G12A (Homo sapiens, UniProt P01116, G12A); assay: biochemical;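 also: binding to KRas measured by TR-FRET displacement after one hour at room temperature, IC50 from a four-parameter fit of percent-of-control values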
Sequence of KRas G12A (P01116 1-169 isoform P01116-2 G12A): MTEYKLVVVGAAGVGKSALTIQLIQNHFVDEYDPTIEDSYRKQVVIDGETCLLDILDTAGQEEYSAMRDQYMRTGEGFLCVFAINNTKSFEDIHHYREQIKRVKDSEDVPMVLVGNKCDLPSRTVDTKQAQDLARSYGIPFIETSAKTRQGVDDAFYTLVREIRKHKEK
Description: as §1

KRas G12S = KRas G12S (Homo sapiens, UniProt P01116, G12S); assay: biochemical;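 also: TR-FRET displacement binding to KRas, read after one hour incubation at room temperature, IC50 from four-parameter fit of percent of control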
Sequence of KRas G12S (P01116 1-169 isoform P01116-2 G12S): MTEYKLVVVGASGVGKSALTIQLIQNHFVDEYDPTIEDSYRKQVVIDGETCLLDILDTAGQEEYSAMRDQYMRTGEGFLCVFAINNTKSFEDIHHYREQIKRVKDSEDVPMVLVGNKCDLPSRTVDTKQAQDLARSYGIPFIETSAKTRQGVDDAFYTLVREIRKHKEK
Description: as §1

KRas G13D = target: T2, KRas G13D (Homo sapiens, UniProt P01116, G13D); assay: KRas binding assay (TR-FRET displacement);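 also: One-hour room temperature incubation before TR-FRET reading, IC50 from a four-parameter curve fit to percent-of-control data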
T2 construct: Biotinylated KRas (corresponding to amino acids 1-169, produced at Accelegan Inc.); biotin (biotinylated); purchased Accelegan Inc
T2 sequence (P01116 1-169 isoform P01116-2 G13D): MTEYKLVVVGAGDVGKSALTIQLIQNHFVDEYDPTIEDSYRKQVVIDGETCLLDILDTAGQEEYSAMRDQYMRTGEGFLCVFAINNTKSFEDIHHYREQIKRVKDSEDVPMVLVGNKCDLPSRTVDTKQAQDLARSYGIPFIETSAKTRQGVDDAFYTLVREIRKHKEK
Description: as §1

KRas G12V = KRas G12V (Homo sapiens, UniProt P01116, G12V); assay: biochemical;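 also: KRas binding measured by TR-FRET displacement at room temperature, IC50 fitted from percent of control values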
Sequence of KRas G12V (P01116 1-169 isoform P01116-2 G12V): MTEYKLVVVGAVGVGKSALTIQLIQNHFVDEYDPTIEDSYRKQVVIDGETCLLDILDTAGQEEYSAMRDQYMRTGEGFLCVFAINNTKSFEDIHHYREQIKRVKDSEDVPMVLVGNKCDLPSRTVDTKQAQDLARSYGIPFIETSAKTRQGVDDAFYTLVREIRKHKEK
Description: as §1

KRas G12D = KRas G12D (Homo sapiens, UniProt P01116, G12D); assay: biochemical;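 also: TR-FRET displacement binding assay on KRas, read after a one-hour incubation at room temperature, IC50 fitted from percent-of-control values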
Sequence of KRas G12D (P01116 1-169 isoform P01116-2 G12D): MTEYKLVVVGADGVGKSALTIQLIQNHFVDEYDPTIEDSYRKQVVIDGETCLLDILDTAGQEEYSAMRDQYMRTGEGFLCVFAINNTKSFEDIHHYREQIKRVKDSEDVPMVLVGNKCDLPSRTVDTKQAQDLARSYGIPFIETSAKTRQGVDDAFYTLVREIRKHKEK
Description: as §1

KRas WT = KRas WT (Homo sapiens, UniProt P01116); assay: biochemical;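 also: binding to KRas read as TR-FRET displacement after a one-hour room-temperature incubation, IC50 derived from percent-of-control values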
Sequence of KRas WT (P01116 1-169 isoform P01116-2): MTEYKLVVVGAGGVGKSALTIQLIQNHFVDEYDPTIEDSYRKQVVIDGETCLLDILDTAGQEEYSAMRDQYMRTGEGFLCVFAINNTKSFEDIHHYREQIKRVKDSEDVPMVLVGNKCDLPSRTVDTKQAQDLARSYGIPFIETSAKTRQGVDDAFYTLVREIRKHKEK
Description: as §1

Sequence of KRas G12R (P01116 1-169 isoform P01116-2 G12R): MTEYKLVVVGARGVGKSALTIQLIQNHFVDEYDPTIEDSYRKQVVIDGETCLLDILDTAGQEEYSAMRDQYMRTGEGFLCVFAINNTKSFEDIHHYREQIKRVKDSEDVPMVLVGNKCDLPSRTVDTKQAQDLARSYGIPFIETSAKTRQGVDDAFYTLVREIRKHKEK

Row | IC50 (KRas G12R) | IC50 (KRas G12C) | IC50 (KRas Q61H) | IC50 (KRas G12A) | IC50 (KRas G12S) | IC50 (KRas G13D) | IC50 (KRas G12V) | IC50 (KRas G12D) | IC50 (KRas WT) | Structure (SMILES)
1 | 0.191 µM | 0.498 µM | 231 nM | 0.271 µM | 0.313 µM | 308 nM | 0.556 µM | 0.586 µM | 0.284 µM | NS(=O)(=O)CC1CCCN(c2nc(OCC34CCCN3CCC4)nc3c(F)c(-c4cccc5cccc(F)c45)ncc23)C1 (stereo not drawn) [Example 221, 1-(1-(8-fluoro-7-(8-fluoronaphthalen-1-yl)-2-((tetrahydro-1H-pyrrolizin-7a(5H)-yl)methoxy)pyrido[4,3-d]pyrimidin-4-yl)piperidin-3-yl)methanesulfonamide]
2 | 0.014 µM | 0.018 µM | 23 nM | 0.016 µM | 0.02 µM | 21 nM | 0.019 µM | 0.029 µM | 0.022 µM | CCc1c(F)ccc2cc(O)cc(-c3ncc4c(N5CCCCC5)nc(OC[C@@H]5C[C@@H](O)CN5C)nc4c3F)c12 [Example 6]
3 | 4.78 µM | 5.65 µM | 20200 nM | 16.2 µM | 13.1 µM | 18100 nM | 8.83 µM | 65.3 µM | 15 µM | Fc1c(-c2cccc3cccc(F)c23)ncc2c(NCCc3cnoc3)nc(OCC34CCCN3CCC4)nc12 [Example 219, 8-fluoro-7-(8-fluoronaphthalen-1-yl)-N-(2-(isoxazol-4-yl)ethyl)-2-((tetrahydro-1H-pyrrolizin-7a(5H)-yl)methoxy)pyrido[4,3-d]pyrimidin-4-amine]
4 | 2.5 µM | 0.863 µM | 5860 nM | 1.65 µM | 2.07 µM | 5070 nM | 1.86 µM | 12.7 µM | 4.29 µM | Fc1c(-c2cccc3cccc(F)c23)ncc2c(NCCCc3cc[nH]n3)nc(OCC34CCCN3CCC4)nc12 [Example 84, N-(3-(1H-pyrazol-3-yl)propyl)-8-fluoro-7-(8-fluoronaphthalen-1-yl)-2-((hexahydro-1H-pyrrolizin-7a-yl)methoxy)pyrido[4,3-d] pyrimidin-4-amine]
5 | 8.68 µM | 29.6 µM | 62300 nM | 52.1 µM | 31.6 µM | 61500 nM | 24.6 µM | 97.9 µM | 49.4 µM | O=c1cc(CNc2nc(OCC34CCCN3CCC4)nc3c(F)c(-c4cccc5cccc(F)c45)ncc23)[nH][nH]1 [Example 231, 5-(((8-fluoro-7-(8-fluoronaphthalen-1-yl)-2-((hexahydro-1H-pyrrolizin-7a-yl)methoxy)pyrido[4,3-d]pyrimidin-4-yl)amino)methyl)-1H-pyrazol-3(2H)-one]
6 | 4.19 µM | 4.18 µM | 19600 nM | 5.14 µM | 6.48 µM | 8210 nM | 3.47 µM | 40.2 µM | 7.24 µM | OC12CC(Nc3nc(OCC45CCCN4CCC5)nc4c(F)c(-c5cccc6cccc(F)c56)ncc34)(C1)C2 [Example 90, 3-((8-fluoro-7-(8-fluoronaphthalen-1-yl)-2-((hexahydro-1H-pyrrolizin-7a-yl)methoxy)pyrido[4,3-d]pyrimidin-4-yl)amino)bicyclo[1.1.1]pentan-1-ol]
7 | 3.19 µM | 1.95 µM | 22100 nM | 2.5 µM | 3.23 µM | 10700 nM | 1.94 µM | 62.9 µM | 5.71 µM | O=c1ccc(CNc2nc(OCC34CCCN3CCC4)nc3c(F)c(-c4cccc5cccc(F)c45)ncc23)c[nH]1 [Example 96, 5-(((8-fluoro-7-(8-fluoronaphthalen-1-yl)-2-((hexahydro-1H-pyrrolizin-7a-yl)methoxy)pyrido[4,3-d]pyrimidin-4-yl)amino)methyl)pyridin-2 (1H)-one]
8 | 4.64 µM | 6.56 µM | 22300 nM | 10.5 µM | 10.9 µM | 21200 nM | 5.8 µM | 30.9 µM | 11.6 µM | Fc1c(-c2cccc3cccc(F)c23)ncc2c(NCCc3c[nH]nn3)nc(OCC34CCCN3CCC4)nc12 [Example 115, N-(2-(1H-1,2,3-triazol-4-yl)ethyl)-8-fluoro-7-(8-fluoronaphthalen-1-yl)-2-((tetrahydro-1H-pyrrolizin-7a(5H)-yl)methoxy)pyrido[4,3-d]pyrimidin-4-amine]
9 | 2.12 µM | 2.15 µM | 10900 nM | 2.85 µM | 4.64 µM | 4660 nM | 3.7 µM | 44 µM | 4.52 µM | OCC12CC(Nc3nc(OCC45CCCN4CCC5)nc4c(F)c(-c5cccc6cccc(F)c56)ncc34)(C1)C2 [Example 85, (3-((8-fluoro-7-(8-fluoronaphthalen-1-yl)-2-((hexahydro-1H-pyrrolizin-7a-yl)methoxy)pyrido[4,3-d]pyrimidin-4-yl)amino)bicyclo[1.1.1]pentan-1-yl)methanol]
10 | 16.4 µM | 9.59 µM | 81100 nM | 28.8 µM | 34.6 µM | 95100 nM | 12.6 µM | ≥ 100 µM | 60 µM | Fc1c(-c2cccc3cccc(F)c23)ncc2c(NCc3cnn4cccnc34)nc(OCC34CCCN3CCC4)nc12 [Example 214, 8-fluoro-7-(8-fluoronaphthalen-1-yl)-N-(pyrazolo[1,5-a]pyrimidin-3-ylmethyl)-2-((tetrahydro-1H-pyrrolizin-7a(5H)-yl)methoxy)pyrido[4,3-d]pyrimidin-4-amine]
11 | 1.18 µM | 1.38 µM | 4610 nM | 2.07 µM | 1.01 µM | 4380 nM | 0.858 µM | 0.32 µM | 3.25 µM | NC(=O)c1cc2n(n1)CCCN(c1nc(OCC34CCCN3CCC4)nc3c(F)c(-c4cccc5cccc(F)c45)ncc13)C2 [Example 258, 5-(8-fluoro-7-(8-fluoronaphthalen-1-yl)-2-((hexahydro-1H-pyrrolizin-7a-yl)methoxy)pyrido[4,3-d]pyrimidin-4-yl)-5,6,7,8-tetrahydro-4H-pyrazolo[1,5-a][1,4]diazepine-2-carboxamide]
12 | 0.224 µM | 1.02 µM | 822 nM | 1.21 µM | 0.202 µM | 465 nM | 0.148 µM | 0.147 µM | 2.7 µM | O=C1NC(=O)C2CN(c3nc(OCC45CCCN4CCC5)nc4c(F)c(-c5cccc6cccc(F)c56)ncc34)CC12 (stereo not drawn) [Example 228, 5-(8-fluoro-7-(8-fluoronaphthalen-1-yl)-2-((hexahydro-1H-pyrrolizin-7a-yl)methoxy)pyrido[4,3-d]pyrimidin-4-yl)tetrahydropyrrolo[3,4-c]pyrrole-1,3(2H,3aH)-dione]
13 | 8.95 µM | 17.8 µM | 57500 nM | 26.1 µM | 23.5 µM | 47100 nM | 17 µM | ≥ 100 µM | 34 µM | Fc1c(-c2cccc3cccc(F)c23)ncc2c(NCCc3ccn[nH]3)nc(OCC34CCCN3CCC4)nc12 [Example 215, N-(2-(1H-pyrazol-5-yl)ethyl)-8-fluoro-7-(8-fluoronaphthalen-1-yl)-2-((tetrahydro-1H-pyrrolizin-7a(5H)-yl)methoxy)pyrido[4,3-d]pyrimidin-4-amine]
14 | 5.92 µM | 3.51 µM | 13800 nM | 6.7 µM | 5.75 µM | 13800 nM | 2.81 µM | 9.05 µM | 8.01 µM | OCc1n[nH]c(CNc2nc(OCC34CCCN3CCC4)nc3c(F)c(-c4cccc5cccc(Cl)c45)ncc23)n1 [Example 105, (5-(((7-(8-chloronaphthalen-1-yl)-8-fluoro-2-((tetrahydro-1H-pyrrolizin-7a(5H)-yl)methoxy)pyrido[4,3-d]pyrimidin-4-yl)amino)methyl)-1H-1,2,4-triazol-3-yl)methanol]
15 | 3.35 µM | 2.04 µM | 4440 nM | 3.39 µM | 0.897 µM | 2460 nM | 0.623 µM | 2.33 µM | 3.5 µM | O=C1CC(CNc2nc(OCC34CCCN3CCC4)nc3c(F)c(-c4cccc5cccc(F)c45)ncc23)C(=O)N1 (stereo not drawn) [Example 236, 3-(((8-fluoro-7-(8-fluoronaphthalen-1-yl)-2-((hexahydro-1H-pyrrolizin-7a-yl)methoxy)pyrido[4,3-d]pyrimidin-4-yl)amino)methyl)pyrrolidine-2,5-dione]
16 | 2.6 µM | 1.06 µM | 3270 nM | 1.25 µM | 1.55 µM | 1810 nM | 1.02 µM | 2.28 µM | 1.4 µM | O[C@@H]1C[C@H](O)CN(c2nc(OCC34CCCN3CCC4)nc3c(F)c(-c4cccc5cccc(F)c45)ncc23)C1 [Example 89, (3S,5R)-1-(8-fluoro-7-(8-fluoronaphthalen-1-yl)-2-((hexahydro-l H-pyrrolizin-7a-yl)methoxy)pyrido[4,3-d]pyrimidin-4-yl)piperidine-3,5-diol]
